Results taken from publication PMC5478271, “Chemical structure-guided design of dynapyrazoles, cell-permeable dynein inhibitors with a unique mode of action” (eLife, 2017).

Experiments:
[1] = target: T1, His-dynein 1 (Homo sapiens, UniProt Q14204); test: Basal ATPase activity of His-dynein 1 (wild-type); assay type: biochemical; details: 40 µM compound, 1 mM MgATP, 2% DMSO; control 0.66 ± 0.1 s^−1
T1 construct: (wild-type, K1912A, K2601A, AA 1320–4646, uniprot: Q14204); made in house; host or cells: Sf9 insect cells (baculovirus)
T1 sequence (Q14204 1320-4646): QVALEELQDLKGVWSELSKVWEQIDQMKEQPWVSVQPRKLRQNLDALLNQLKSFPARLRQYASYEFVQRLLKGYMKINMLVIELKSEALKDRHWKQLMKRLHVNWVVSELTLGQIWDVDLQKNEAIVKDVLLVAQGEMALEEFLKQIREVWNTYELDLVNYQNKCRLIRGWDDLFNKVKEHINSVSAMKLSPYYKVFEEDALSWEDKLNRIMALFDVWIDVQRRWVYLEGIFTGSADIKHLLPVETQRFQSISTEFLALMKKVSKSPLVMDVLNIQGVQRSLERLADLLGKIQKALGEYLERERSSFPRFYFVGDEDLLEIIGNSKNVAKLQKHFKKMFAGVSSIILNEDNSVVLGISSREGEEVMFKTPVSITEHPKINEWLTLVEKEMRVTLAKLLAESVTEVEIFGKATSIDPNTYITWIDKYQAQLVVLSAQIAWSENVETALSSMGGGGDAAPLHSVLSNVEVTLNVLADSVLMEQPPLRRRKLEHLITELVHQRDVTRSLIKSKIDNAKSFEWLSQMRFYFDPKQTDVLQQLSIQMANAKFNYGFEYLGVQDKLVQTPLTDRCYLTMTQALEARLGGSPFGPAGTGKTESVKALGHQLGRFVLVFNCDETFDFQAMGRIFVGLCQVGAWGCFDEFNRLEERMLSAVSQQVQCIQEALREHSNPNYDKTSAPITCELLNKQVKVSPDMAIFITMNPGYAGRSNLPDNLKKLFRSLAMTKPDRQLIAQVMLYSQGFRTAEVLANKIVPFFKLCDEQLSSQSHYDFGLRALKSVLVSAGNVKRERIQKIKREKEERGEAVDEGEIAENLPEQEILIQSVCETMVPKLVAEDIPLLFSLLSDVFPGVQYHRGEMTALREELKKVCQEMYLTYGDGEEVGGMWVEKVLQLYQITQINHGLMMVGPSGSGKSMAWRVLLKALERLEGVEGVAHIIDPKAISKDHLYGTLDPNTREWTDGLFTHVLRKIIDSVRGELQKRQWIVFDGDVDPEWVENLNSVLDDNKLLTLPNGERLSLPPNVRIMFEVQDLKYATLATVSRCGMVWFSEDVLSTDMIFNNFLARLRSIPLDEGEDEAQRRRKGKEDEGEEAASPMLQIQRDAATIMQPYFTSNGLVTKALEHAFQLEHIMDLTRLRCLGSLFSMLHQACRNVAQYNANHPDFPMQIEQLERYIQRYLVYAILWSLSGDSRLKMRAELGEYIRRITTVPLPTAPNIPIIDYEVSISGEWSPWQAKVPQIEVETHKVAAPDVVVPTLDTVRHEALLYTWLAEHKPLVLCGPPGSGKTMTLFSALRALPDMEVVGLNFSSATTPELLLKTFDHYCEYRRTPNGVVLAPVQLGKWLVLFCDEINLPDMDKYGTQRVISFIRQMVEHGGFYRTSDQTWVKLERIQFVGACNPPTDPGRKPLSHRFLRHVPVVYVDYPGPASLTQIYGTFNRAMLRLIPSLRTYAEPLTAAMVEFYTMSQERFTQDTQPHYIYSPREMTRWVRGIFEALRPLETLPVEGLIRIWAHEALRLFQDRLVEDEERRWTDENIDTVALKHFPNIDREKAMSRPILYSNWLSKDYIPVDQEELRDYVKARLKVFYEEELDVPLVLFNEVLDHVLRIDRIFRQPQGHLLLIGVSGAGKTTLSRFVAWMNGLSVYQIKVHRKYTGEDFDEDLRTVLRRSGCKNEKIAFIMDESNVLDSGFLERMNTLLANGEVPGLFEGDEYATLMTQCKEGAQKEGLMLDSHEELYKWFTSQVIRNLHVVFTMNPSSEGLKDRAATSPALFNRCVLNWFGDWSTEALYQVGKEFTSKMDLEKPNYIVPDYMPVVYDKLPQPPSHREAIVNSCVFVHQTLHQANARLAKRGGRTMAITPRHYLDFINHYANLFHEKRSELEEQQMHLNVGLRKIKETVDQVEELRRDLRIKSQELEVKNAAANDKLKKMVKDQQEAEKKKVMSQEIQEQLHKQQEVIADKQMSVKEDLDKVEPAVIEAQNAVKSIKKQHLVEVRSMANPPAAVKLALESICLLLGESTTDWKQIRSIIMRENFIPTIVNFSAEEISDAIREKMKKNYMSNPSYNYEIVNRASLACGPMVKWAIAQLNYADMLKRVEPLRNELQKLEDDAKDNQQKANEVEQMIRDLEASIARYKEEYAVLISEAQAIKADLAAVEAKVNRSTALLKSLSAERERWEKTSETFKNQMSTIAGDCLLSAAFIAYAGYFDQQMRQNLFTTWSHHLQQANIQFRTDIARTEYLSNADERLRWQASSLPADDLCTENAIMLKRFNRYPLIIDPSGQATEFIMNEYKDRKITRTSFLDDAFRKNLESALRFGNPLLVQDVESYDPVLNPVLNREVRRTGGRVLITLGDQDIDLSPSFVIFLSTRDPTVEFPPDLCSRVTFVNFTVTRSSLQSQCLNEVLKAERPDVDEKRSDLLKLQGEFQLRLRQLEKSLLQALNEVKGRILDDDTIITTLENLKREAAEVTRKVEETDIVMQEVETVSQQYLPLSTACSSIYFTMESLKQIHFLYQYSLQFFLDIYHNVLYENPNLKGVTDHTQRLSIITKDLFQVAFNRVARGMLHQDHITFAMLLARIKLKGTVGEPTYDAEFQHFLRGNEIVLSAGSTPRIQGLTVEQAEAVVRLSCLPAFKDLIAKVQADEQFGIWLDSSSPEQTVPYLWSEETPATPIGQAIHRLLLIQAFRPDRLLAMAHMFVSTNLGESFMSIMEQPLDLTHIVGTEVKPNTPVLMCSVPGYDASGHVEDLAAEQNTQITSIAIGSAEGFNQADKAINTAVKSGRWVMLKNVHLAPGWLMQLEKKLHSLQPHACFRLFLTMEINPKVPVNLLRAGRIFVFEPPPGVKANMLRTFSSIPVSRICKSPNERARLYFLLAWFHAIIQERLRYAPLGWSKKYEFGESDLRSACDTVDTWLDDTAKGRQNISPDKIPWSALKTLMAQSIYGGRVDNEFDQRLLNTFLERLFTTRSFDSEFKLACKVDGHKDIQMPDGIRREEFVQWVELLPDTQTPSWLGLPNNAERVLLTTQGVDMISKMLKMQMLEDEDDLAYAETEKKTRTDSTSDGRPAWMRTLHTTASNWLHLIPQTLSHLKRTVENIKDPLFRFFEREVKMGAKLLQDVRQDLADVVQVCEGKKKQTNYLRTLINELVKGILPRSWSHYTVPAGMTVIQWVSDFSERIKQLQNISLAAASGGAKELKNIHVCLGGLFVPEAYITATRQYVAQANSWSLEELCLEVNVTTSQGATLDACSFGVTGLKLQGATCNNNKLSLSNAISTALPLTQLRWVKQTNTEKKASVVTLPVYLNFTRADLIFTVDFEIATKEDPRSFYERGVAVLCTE
Description: ATPase assays using recombinant Dynein 1 (wild-type and mutants) were performed in a buffer containing 25 mM PIPES pH7.0, 30 mM KCl, 1 mM EGTA, 5 mM MgCl2, 0.01% triton X-100, 1 mM DTT, and 20–30 µM taxol (if microtubules were present). For typical conditions, enzyme was incubated with varying concentrations of inhibitor in buffer containing 2% DMSO for 10 min in a volume of 10 μL. When microtubules were present, they were polymerized by stepwise addition of taxol and high concentrations of DMSO (30% final during polymerization reactions), and re-suspended following centrifugation in ATPase buffer to a concentration up to threefold above the final concentration used in the reaction (bovine brain tubulin, no fluoresecent label). For microtubule-stimulated reactions in dose-response format, reactions were assembled by 1:1:1 mixture of 3x enzyme stock, 3x compound stock (in buffer with 6% DMSO), and 3x microtubule stock to each well. For microtubule-stimulated ATPase assays at tubulin concentrations > 2.5 µM, enzyme stock was supplemented with compound stock in pure DMSO (resulting in an intermediate DMSO concentration of 6%), and then the microtubule stock was added. […]
Assembled reaction mixtures (including enzyme, compound, and microtubules, if present) were incubated for 10 min before addition of ATP. […] The fraction of γ-phosphate hydrolyzed in each condition was quantified using FIJI.

[2] = target: T1, His-dynein 1; test: Microtubule-stimulated ATPase activity of His-dynein 1; assay type: biochemical; details: 1 mM MgATP
Description: ATPase assays using recombinant Dynein 1 (wild-type and mutants) were performed in a buffer containing 25 mM PIPES pH7.0, 30 mM KCl, 1 mM EGTA, 5 mM MgCl2, 0.01% triton X-100, 1 mM DTT, and 20–30 µM taxol (if microtubules were present). For typical conditions, enzyme was incubated with varying concentrations of inhibitor in buffer containing 2% DMSO for 10 min in a volume of 10 μL. When microtubules were present, they were polymerized by stepwise addition of taxol and high concentrations of DMSO (30% final during polymerization reactions), and re-suspended following centrifugation in ATPase buffer to a concentration up to threefold above the final concentration used in the reaction (bovine brain tubulin, no fluoresecent label). For microtubule-stimulated reactions in dose-response format, reactions were assembled by 1:1:1 mixture of 3x enzyme stock, 3x compound stock (in buffer with 6% DMSO), and 3x microtubule stock to each well. For microtubule-stimulated ATPase assays at tubulin concentrations > 2.5 µM, enzyme stock was supplemented with compound stock in pure DMSO (resulting in an intermediate DMSO concentration of 6%), and then the microtubule stock was added. Final enzyme concentrations were 30–100 nM for GFP-dynein 1, wild-type 6x-His-dynein 1, and K2601A 6x-His-dynein 1 and up to 500 nM for K1912A 6x-His-dynein 1. The final DMSO concentration was 2% in all ATPase assays performed.
Assembled reaction mixtures (including enzyme, compound, and microtubules, if present) were incubated for 10 min before addition of ATP. Each ATPase reaction was initiated by addition of 2 μL of a 6x ATP stock containing trace γ-^32P ATP (3 µCi/mmol, 3 µCi/mL, Perkin Elmer) and allowed to proceed for a time predetermined to lie within the linear range of the assay (20–30 min). For typical conditions, ATP was used at a final concentration of 1 mM. Reactions were quenched by the addition of 12 µL 100 mM EDTA, and 2 μL of each quenched reaction was spotted onto PEI-cellulose TLC plates (Millipore). Plates were developed in a glass chamber with a freshly prepared solution of 150 mM formic acid and 150 mM LiCl, dried, exposed to a storage phosphor tray (GE Healthsciences), and scanned on a Typhoon imaging system (GE Healthsciences). The fraction of γ-phosphate hydrolyzed in each condition was quantified using FIJI.
Curve fitting: Where dose-response experiments are fit and IC50values given, these are obtained as follows: Individual experiments are treated as separate. […]

Row | SMILES | inhibition at 40 µM [1] | Plateau of microtubule-stimulated ATPase activity at increasing compound concentrations ([2]; 2.5 µM microtubules) | IC50 ([2]; 2.5 µM microtubules, fit to non-zero plateau, read-out: IC50, inhibition of microtubule-stimulated His-dynein 1 ATPase activity) | Residual rate of microtubule-stimulated ATPase activity ([2]; 30 µM compound, 8 or 15 µM microtubules)
1 | N#Cc1c(C2(c3ccc(Cl)cc3)CC2)nn2c1[nH]c(=O)c1cc(I)ccc12 [Compound 8, 2-[1-(4-chlorophenyl)cyclopropyl]-7-iodo-5-oxo-4H-pyrazolo[1,5-a]quinazoline-3-carbonitrile] | ~30% | ~ 0.5 s^−1 | 6.2 ± 1.6 µM | ~ 0.5 s^−1
2 | N#C/C(C(=O)c1ccc(Cl)cc1Cl)=C1\NC(=O)c2ccc(Cl)cc2N1 [ciliobrevin D, reference compound] | ~70% | did not reveal a plateau |  | 
